Reference: patent publication US5679701A (priority 1996, dated 1997)
pIC50, pKd: −log10 of the molar value. “Also recorded” adds a separate entry of the source. Read-outs that look alike come from different tables or passages of the source.

Assays:
[1] = target: T1, ryanodine receptor (skeletal sarcoplasmic reticulum membrane vesicles) (Oryctolagus cuniculus, UniProt P11716); test: biochemical; assay type: binding; settings: first embodiment
T1 construct: skeletal sarcoplasmic reticulum membrane vesicles; from tissue; host or cells: skeletal muscle sarcoplasmic reticulum membrane vesicles

[2] = target: T2, Sarcoplasmic Reticular Ca^++ -Release Channel (ryanodine receptor) (Oryctolagus cuniculus, UniProt P11716); settings: Table II; footnote * J. MED. CHEM. 30 710 (1987); cited from earlier work
T2 construct: skeletal sarcoplasmic reticulum membrane vesicles; from tissue; host or cells: skeletal muscle sarcoplasmic reticulum membrane vesicles

[3] = target: SR Ca^2+ release channel (junctional SR vesicles from rabbit skeletal muscle) (Oryctolagus cuniculus, UniProt P11716); test: biochemical; assay type: biochemical
Method: Briefly, junctional SR vesicles from rabbit skeletal muscle were passively loaded with. ^45 Ca^2+ in the presence and absence of the esters. Ca^2+ -efflux was then initiated by diluting the vesicles 100-fold into a low Ca^2+ -concentration. ^45 Ca^2+ remaining in the vesicles was determined after a 3 sec. efflux period by termination and filtration of the vesicles followed by liquid scintillation counting.

[4] = test system: SR Ca^++ release channel/ryanodine receptor (cardiac and skeletal muscle vesicles); assay type: biochemical; settings: ryanodine; for opening of the SR Ca^++ release channel (in words): dehydroryanodine: low concentrations (<μM)
[5] = test system: mammalian skeletal muscle; settings: cited from earlier work
mammalian cardiac muscle = settings: cited from earlier work
[6] = test system: skeletal muscle sarcoplasmic reticulum (SR); settings: cited from earlier work
[7] = 45Ca2+ efflux, skeletal SR vesicles

SR Ca^2+ release channel (junctional SR vesicles from rabbit skeletal muscle), sequence (P11716 whole entry): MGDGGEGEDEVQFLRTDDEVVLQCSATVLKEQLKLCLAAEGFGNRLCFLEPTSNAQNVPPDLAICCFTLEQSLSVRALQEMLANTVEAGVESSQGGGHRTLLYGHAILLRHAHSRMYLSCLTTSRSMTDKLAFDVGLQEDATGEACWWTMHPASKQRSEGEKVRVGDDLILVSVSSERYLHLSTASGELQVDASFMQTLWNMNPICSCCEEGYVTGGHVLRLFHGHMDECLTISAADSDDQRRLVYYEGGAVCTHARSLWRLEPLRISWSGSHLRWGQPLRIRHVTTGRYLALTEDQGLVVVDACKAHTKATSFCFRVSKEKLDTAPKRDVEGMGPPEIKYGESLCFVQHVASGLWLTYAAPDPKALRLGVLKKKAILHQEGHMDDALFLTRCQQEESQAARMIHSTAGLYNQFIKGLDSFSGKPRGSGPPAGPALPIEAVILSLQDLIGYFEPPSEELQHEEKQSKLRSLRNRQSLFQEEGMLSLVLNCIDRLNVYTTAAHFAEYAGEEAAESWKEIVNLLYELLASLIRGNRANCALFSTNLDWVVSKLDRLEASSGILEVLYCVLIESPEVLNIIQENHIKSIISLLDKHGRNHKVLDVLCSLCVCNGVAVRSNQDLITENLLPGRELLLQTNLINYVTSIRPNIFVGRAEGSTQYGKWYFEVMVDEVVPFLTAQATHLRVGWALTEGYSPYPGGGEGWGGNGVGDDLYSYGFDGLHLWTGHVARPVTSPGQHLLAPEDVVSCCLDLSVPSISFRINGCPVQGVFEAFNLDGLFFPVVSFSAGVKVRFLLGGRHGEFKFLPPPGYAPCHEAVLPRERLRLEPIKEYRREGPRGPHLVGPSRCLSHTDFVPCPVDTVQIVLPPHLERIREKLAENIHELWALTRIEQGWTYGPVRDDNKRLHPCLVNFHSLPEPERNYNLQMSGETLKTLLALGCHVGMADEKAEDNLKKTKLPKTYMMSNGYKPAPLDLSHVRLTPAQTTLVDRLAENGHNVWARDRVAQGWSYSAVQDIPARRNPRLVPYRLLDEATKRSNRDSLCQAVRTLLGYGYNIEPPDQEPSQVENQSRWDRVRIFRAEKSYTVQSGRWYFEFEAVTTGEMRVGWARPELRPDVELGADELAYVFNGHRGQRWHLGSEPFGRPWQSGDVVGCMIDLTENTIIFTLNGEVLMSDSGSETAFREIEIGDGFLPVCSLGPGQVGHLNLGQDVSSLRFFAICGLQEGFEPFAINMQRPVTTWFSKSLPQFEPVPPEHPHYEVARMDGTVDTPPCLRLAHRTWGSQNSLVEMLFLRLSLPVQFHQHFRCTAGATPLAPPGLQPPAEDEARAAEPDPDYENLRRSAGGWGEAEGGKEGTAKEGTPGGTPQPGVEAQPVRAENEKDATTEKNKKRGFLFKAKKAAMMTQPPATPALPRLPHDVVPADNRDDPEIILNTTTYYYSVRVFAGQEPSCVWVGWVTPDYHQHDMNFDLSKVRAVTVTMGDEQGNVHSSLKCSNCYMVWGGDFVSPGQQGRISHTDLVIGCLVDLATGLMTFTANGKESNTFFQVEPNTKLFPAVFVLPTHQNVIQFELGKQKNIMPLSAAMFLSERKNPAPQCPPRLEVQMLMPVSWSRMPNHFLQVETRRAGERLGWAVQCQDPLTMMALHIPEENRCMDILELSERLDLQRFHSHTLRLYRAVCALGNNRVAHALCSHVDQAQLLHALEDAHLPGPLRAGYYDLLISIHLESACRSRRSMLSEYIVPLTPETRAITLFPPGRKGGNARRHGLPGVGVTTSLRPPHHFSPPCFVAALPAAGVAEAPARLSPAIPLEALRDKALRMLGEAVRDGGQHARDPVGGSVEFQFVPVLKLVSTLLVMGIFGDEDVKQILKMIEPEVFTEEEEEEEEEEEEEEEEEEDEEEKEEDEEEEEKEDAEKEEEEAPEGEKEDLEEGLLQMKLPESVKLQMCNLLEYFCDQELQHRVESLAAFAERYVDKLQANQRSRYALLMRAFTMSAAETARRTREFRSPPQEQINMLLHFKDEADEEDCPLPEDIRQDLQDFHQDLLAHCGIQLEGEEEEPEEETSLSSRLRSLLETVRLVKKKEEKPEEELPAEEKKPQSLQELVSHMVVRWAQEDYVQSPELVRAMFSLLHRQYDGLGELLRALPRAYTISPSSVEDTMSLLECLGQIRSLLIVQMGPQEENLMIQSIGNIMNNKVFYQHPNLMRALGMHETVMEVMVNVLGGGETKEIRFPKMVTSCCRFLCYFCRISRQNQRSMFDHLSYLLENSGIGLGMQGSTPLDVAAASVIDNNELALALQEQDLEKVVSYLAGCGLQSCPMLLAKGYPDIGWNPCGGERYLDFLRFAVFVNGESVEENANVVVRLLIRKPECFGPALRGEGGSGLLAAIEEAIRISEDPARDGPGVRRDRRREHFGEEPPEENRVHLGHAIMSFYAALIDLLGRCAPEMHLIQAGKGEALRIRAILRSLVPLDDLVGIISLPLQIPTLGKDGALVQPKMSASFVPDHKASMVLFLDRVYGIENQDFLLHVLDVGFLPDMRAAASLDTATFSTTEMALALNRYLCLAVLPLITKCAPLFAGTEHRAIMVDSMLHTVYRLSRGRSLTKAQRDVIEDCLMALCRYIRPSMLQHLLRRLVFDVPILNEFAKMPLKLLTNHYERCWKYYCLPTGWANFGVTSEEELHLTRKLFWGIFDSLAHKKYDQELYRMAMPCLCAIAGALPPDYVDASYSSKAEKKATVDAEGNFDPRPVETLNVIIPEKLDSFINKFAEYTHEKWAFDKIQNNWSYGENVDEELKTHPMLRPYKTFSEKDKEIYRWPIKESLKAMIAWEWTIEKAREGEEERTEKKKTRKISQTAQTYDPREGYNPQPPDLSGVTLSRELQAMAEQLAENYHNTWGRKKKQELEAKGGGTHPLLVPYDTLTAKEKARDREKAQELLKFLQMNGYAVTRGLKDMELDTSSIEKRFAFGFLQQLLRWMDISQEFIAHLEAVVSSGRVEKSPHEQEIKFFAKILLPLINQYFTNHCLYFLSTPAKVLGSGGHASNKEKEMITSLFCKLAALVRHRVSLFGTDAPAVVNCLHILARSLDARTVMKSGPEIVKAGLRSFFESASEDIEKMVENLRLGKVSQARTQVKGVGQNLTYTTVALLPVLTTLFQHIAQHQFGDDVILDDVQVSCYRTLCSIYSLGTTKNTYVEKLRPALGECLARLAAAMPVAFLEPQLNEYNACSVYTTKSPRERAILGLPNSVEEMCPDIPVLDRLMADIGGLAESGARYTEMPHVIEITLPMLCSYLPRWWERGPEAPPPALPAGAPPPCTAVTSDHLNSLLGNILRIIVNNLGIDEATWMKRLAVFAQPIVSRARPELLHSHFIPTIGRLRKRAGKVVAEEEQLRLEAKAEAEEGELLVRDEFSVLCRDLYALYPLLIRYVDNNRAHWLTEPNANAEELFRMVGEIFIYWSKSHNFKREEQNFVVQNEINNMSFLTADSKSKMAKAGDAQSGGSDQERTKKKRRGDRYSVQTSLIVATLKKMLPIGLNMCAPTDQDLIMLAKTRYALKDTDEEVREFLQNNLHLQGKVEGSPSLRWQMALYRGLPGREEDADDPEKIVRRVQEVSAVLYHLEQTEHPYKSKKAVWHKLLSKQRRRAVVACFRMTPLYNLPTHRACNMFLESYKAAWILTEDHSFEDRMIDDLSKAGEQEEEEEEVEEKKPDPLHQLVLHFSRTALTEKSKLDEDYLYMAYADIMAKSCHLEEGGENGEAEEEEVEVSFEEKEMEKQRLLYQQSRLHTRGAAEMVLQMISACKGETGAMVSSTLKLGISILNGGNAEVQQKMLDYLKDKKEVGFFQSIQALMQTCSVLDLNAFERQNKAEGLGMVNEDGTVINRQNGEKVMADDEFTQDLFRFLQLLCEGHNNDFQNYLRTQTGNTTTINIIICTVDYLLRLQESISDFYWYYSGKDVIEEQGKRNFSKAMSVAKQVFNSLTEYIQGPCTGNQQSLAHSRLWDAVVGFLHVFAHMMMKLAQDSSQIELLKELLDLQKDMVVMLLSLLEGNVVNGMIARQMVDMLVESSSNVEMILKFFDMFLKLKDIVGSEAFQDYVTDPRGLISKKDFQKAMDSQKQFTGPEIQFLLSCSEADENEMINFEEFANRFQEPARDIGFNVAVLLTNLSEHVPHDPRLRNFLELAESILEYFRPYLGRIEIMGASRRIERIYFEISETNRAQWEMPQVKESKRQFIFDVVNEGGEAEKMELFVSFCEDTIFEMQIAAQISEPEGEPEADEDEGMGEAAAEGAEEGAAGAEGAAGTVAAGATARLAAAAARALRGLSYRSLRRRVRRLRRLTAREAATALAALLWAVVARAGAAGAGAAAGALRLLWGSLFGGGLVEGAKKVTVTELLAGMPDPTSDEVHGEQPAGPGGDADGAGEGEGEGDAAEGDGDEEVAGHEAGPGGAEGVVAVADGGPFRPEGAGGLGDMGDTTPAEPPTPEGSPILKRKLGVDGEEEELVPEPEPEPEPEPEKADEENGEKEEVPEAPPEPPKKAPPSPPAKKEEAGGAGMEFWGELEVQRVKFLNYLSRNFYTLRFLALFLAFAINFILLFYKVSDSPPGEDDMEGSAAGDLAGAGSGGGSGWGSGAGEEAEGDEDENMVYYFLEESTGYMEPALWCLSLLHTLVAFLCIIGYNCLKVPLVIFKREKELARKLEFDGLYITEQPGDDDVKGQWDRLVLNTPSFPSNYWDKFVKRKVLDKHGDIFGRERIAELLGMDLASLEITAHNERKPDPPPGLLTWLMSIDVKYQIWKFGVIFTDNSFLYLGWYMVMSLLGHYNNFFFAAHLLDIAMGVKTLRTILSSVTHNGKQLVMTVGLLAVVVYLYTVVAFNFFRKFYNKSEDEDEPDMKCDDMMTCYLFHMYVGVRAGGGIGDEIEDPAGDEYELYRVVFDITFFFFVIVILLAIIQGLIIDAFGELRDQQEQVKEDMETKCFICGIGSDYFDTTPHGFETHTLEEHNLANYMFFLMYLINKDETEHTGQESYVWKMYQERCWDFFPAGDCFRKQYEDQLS
T1 sequence (P11716 whole entry): as above
T2 sequence (P11716 whole entry): as above

Row | SMILES | pIC50 ([1]; read-out: IC50) | pKd ([1]; read-out: KD) | IC50 [2] | opening (activation) of the SR CRC (in words) [3] | concentration inducing deactivation of the channel [3, 7] | concentration of maximal channel activation [3, 7] | closing of the SR Ca^++ release channel (in words) ([4]; I, NMDS: concentrations as high as 300 μM, dehydroryanodine: >μM) | opening of the SR Ca^++ release channel (in words) [4] | opening of the SR Ca^++ release channel (in words) ([4]; listed as ryanodine) | effect on mammalian skeletal muscle (in words) [5] | effect on mammalian cardiac muscle (in words) (mammalian cardiac muscle) | effect on active uptake of Ca^++ by skeletal muscle SR (in words) [6]
1 | CC1=C(C(C)C)[C@@H](OC(=O)c2ccc[nH]2)[C@@]2(O)[C@@]3(C)CC(=O)O[C@@]4([C@H](O)[C@@H](C)CC[C@]34O)[C@@]12O [Anhydro-Ryanodine, reference compound] | < 6.00 | < 6.46 | > 1000 nM |  |  |  |  |  |  |  |  | 
2 | CC1CCC2(O)C3(C)CC4(O)OC2(C1O)C1(O)C3(O)C(OC(=O)c2ccc[nH]2)C(O)(C(C)C)C41C (stereo not drawn) [Ryanodine, ryanodine] |  |  |  | activates the SR CRC at low μM concentrations; also recorded: induces full opening of the SR CRC | higher than 30 μM | about 30 μM | closes or inactivates the SR Ca^++ release channels; also recorded: inhibits Ca^++ flux by inactivating or closing the channel; also recorded: the channel is closed | opens the SR Ca^++ release channel/ryanodine receptor | enhances Ca^++ flux across the SR membrane by opening the SR Ca^++ release channel; also recorded: the Ca^++ release channel is opened | irreversible contracture | negative inotropic effect | obstruct active uptake
